According to PubChem BioAssay (NCI):
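Step 1: Grow cells in 96-well plates. Step 2: Expose to compound for 48 hours at 5 concentrations. Step 3: Interpolate endpoints linearly; if unreached, use highest concentration. GI50 is the concentration that inhibits growth by half. TGI denotes the concentration required for complete inhibition of growth.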

Experiments:
Test in all cases: inhibition of tumour cell growth, NCI panel, 48 h
NCI-H226 lung = system: NCI-H226 lung
HCC-2998 colon = system: HCC-2998 colon
HL-60(TB) leukemia = system: HL-60(TB) leukemia
MOLT-4 leukemia = system: MOLT-4 leukemia
RXF 393 renal = system: RXF 393 renal
COLO 205 colon = system: COLO 205 colon
DU-145 prostate = system: DU-145 prostate
SK-MEL-2 melanoma = system: SK-MEL-2 melanoma
HCT-116 colon = system: HCT-116 colon
RPMI-8226 leukemia = system: RPMI-8226 leukemia
HOP-62 NSCLC = system: HOP-62 NSCLC
K-562 leukemia = system: K-562 leukemia
M14 melanoma = system: M14 melanoma
OVCAR-4 ovarian = system: OVCAR-4 ovarian
ACHN renal = system: ACHN renal
TK-10 renal = system: TK-10 renal
NCI-H522 lung = system: NCI-H522 lung
HCT-15 colon = system: HCT-15 colon
SK-MEL-5 melanoma = system: SK-MEL-5 melanoma
OVCAR-8 ovarian = system: OVCAR-8 ovarian
A549 NSCLC = system: A549 NSCLC
MALME-3M melanoma = system: MALME-3M melanoma
BT-549 breast = system: BT-549 breast
T-47D breast = system: T-47D breast
SNB-75 CNS = system: SNB-75 CNS
SK-OV-3 ovarian = system: SK-OV-3 ovarian
MDA-MB-231 breast = system: MDA-MB-231 breast
CCRF-CEM leukemia = system: CCRF-CEM leukemia
SF-268 CNS = system: SF-268 CNS
IGROV1 ovarian = system: IGROV1 ovarian
MCF7 breast = system: MCF7 breast
CAKI-1 renal = system: CAKI-1 renal
786-0 renal = system: 786-0 renal
HT29 colon = system: HT29 colon
SF-539 CNS = system: SF-539 CNS
EKVX NSCLC = system: EKVX NSCLC
NCI/ADR-RES ovarian = system: NCI/ADR-RES ovarian
HS 578T breast = system: HS 578T breast
UACC-62 melanoma = system: UACC-62 melanoma
SF-295 CNS = system: SF-295 CNS
A498 renal = system: A498 renal
NCI-H460 lung = system: NCI-H460 lung
U251 CNS = system: U251 CNS
KM12 colon = system: KM12 colon
LOX IMVI melanoma = system: LOX IMVI melanoma
MDA-MB-435 = system: MDA-MB-435
OVCAR-5 ovarian = system: OVCAR-5 ovarian
NCI-H23 lung = system: NCI-H23 lung
SK-MEL-28 melanoma = system: SK-MEL-28 melanoma
UACC-257 melanoma = system: UACC-257 melanoma
SW-620 colon = system: SW-620 colon
UO-31 renal = system: UO-31 renal
HOP-92 NSCLC = system: HOP-92 NSCLC
SN12C renal = system: SN12C renal
PC-3 prostate = system: PC-3 prostate
SNB-19 CNS = system: SNB-19 CNS
OVCAR-3 ovarian = system: OVCAR-3 ovarian
SR leukemia = system: SR leukemia

For C=CC(=O)Nc1cccc(Nc2nc(Nc3ccc(OCCOC)cc3)ncc2F)c1, which GI50 (NCI-H226 lung) is on record?
Its GI50 is 0.914 µM.

And the TGI (NCI-H226 lung)?
Its TGI is 11.6 µM.

And the GI50 (HCC-2998 colon)?
The GI50 was 3.55 µM.

And the TGI (HCC-2998 colon)?
The TGI was 19.5 µM.

What about the GI50 (HL-60(TB) leukemia) of the same compound?
The GI50 was 7.7 µM.

And the TGI (HL-60(TB) leukemia)?
Its TGI is 41.7 µM.

And the GI50 (MOLT-4 leukemia)?
The GI50 was 3.97 µM.

And the TGI (MOLT-4 leukemia)?
The TGI was 33.6 µM.

And the GI50 (RXF 393 renal)?
The GI50 was 0.387 µM.

And the TGI (RXF 393 renal)?
The TGI was 2.73 µM.

And the GI50 (COLO 205 colon)?
Its GI50 is 2.39 µM.

What about the TGI (COLO 205 colon) of the same compound?
The TGI was 11 µM.

And the GI50 (DU-145 prostate)?
The GI50 was 1.55 µM.

And the TGI (DU-145 prostate)?
The TGI was 13.7 µM.

And the GI50 (SK-MEL-2 melanoma)?
The GI50 was 1.9 µM.

And the TGI (SK-MEL-2 melanoma)?
Its TGI is 8.65 µM.

What about the GI50 (HCT-116 colon) of the same compound?
The GI50 was 1.82 µM.

And the TGI (HCT-116 colon)?
The TGI was 13.1 µM.

And the GI50 (RPMI-8226 leukemia)?
Its GI50 is 3.28 µM.

And the TGI (RPMI-8226 leukemia)?
Its TGI is 23.3 µM.

What about the GI50 (HOP-62 NSCLC) of the same compound?
The GI50 was 2.42 µM.

What about the TGI (HOP-62 NSCLC) of the same compound?
Its TGI is 20.7 µM.

And the GI50 (K-562 leukemia)?
Its GI50 is 4.8 µM.

What about the TGI (K-562 leukemia) of the same compound?
Its TGI is greater than 100 µM.

What about the GI50 (M14 melanoma) of the same compound?
The GI50 was 1.12 µM.

And the TGI (M14 melanoma)?
Its TGI is 12.7 µM.

What about the GI50 (OVCAR-4 ovarian) of the same compound?
Its GI50 is 0.824 µM.

And the TGI (OVCAR-4 ovarian)?
The TGI was 17.1 µM.

And the GI50 (ACHN renal)?
Its GI50 is 0.454 µM.

And the TGI (ACHN renal)?
Its TGI is 2.84 µM.

And the GI50 (TK-10 renal)?
The GI50 was 0.99 µM.

What about the TGI (TK-10 renal) of the same compound?
Its TGI is 3.86 µM.

And the GI50 (NCI-H522 lung)?
Its GI50 is 1.78 µM.

And the TGI (NCI-H522 lung)?
The TGI was 8.14 µM.

And the GI50 (HCT-15 colon)?
The GI50 was 1.03 µM.

What about the TGI (HCT-15 colon) of the same compound?
The TGI was 16.1 µM.

And the GI50 (SK-MEL-5 melanoma)?
Its GI50 is 6.18 µM.

And the TGI (SK-MEL-5 melanoma)?
The TGI was 20.2 µM.

And the GI50 (OVCAR-8 ovarian)?
The GI50 was 3.19 µM.

And the TGI (OVCAR-8 ovarian)?
Its TGI is 45.1 µM.

What about the GI50 (A549 NSCLC) of the same compound?
The GI50 was 2.77 µM.

What about the TGI (A549 NSCLC) of the same compound?
The TGI was 13.1 µM.

What about the GI50 (MALME-3M melanoma) of the same compound?
The GI50 was 3.08 µM.

What about the TGI (MALME-3M melanoma) of the same compound?
Its TGI is 20.9 µM.

What about the GI50 (BT-549 breast) of the same compound?
Its GI50 is 0.718 µM.

And the TGI (BT-549 breast)?
The TGI was 8.23 µM.

What about the GI50 (T-47D breast) of the same compound?
The GI50 was 1.7 µM.

And the TGI (T-47D breast)?
The TGI was 8.9 µM.

What about the GI50 (SNB-75 CNS) of the same compound?
Its GI50 is 0.341 µM.

And the TGI (SNB-75 CNS)?
Its TGI is 2.44 µM.

And the GI50 (SK-OV-3 ovarian)?
The GI50 was 0.533 µM.

And the TGI (SK-OV-3 ovarian)?
The TGI was 3.17 µM.

What about the GI50 (MDA-MB-231 breast) of the same compound?
The GI50 was 2.85 µM.

What about the TGI (MDA-MB-231 breast) of the same compound?
The TGI was 24.7 µM.

What about the GI50 (CCRF-CEM leukemia) of the same compound?
Its GI50 is 4.06 µM.

What about the TGI (CCRF-CEM leukemia) of the same compound?
The TGI was greater than 63.1 µM.

And the GI50 (SF-268 CNS)?
Its GI50 is 2.06 µM.

And the TGI (SF-268 CNS)?
Its TGI is 16 µM.

What about the GI50 (IGROV1 ovarian) of the same compound?
Its GI50 is 1.66 µM.

What about the TGI (IGROV1 ovarian) of the same compound?
Its TGI is 5.45 µM.

What about the GI50 (MCF7 breast) of the same compound?
The GI50 was 2.54 µM.

And the TGI (MCF7 breast)?
The TGI was 17.2 µM.

What about the GI50 (CAKI-1 renal) of the same compound?
Its GI50 is 0.511 µM.

What about the TGI (CAKI-1 renal) of the same compound?
Its TGI is 2.46 µM.

What about the GI50 (786-0 renal) of the same compound?
Its GI50 is 0.887 µM.

And the TGI (786-0 renal)?
Its TGI is 13.1 µM.

What about the GI50 (HT29 colon) of the same compound?
The GI50 was 2.6 µM.

What about the TGI (HT29 colon) of the same compound?
Its TGI is 16.3 µM.

What about the GI50 (SF-539 CNS) of the same compound?
Its GI50 is 1.47 µM.

And the TGI (SF-539 CNS)?
Its TGI is 4.95 µM.

And the GI50 (EKVX NSCLC)?
Its GI50 is 3.16 µM.

What about the TGI (EKVX NSCLC) of the same compound?
The TGI was 15.6 µM.

And the GI50 (NCI/ADR-RES ovarian)?
Its GI50 is 2.94 µM.

And the TGI (NCI/ADR-RES ovarian)?
The TGI was 16.3 µM.

What about the GI50 (HS 578T breast) of the same compound?
Its GI50 is 1.17 µM.

What about the TGI (HS 578T breast) of the same compound?
The TGI was 6.97 µM.

And the GI50 (UACC-62 melanoma)?
Its GI50 is 1.93 µM.

What about the TGI (UACC-62 melanoma) of the same compound?
Its TGI is 12.9 µM.

And the GI50 (SF-295 CNS)?
Its GI50 is 2.95 µM.

What about the TGI (SF-295 CNS) of the same compound?
The TGI was 14 µM.

And the GI50 (A498 renal)?
The GI50 was 0.306 µM.

What about the TGI (A498 renal) of the same compound?
Its TGI is 1.66 µM.

And the GI50 (NCI-H460 lung)?
Its GI50 is 2.28 µM.

And the TGI (NCI-H460 lung)?
Its TGI is 14.5 µM.

And the GI50 (U251 CNS)?
The GI50 was 1.89 µM.

What about the TGI (U251 CNS) of the same compound?
Its TGI is 16 µM.

And the GI50 (KM12 colon)?
The GI50 was 3.43 µM.

And the TGI (KM12 colon)?
Its TGI is 15.6 µM.

And the GI50 (LOX IMVI melanoma)?
Its GI50 is 1.12 µM.

And the TGI (LOX IMVI melanoma)?
Its TGI is 3.62 µM.

What about the GI50 (MDA-MB-435) of the same compound?
The GI50 was 2.87 µM.

What about the TGI (MDA-MB-435) of the same compound?
The TGI was 15.7 µM.

And the GI50 (OVCAR-5 ovarian)?
Its GI50 is 1.89 µM.

What about the TGI (OVCAR-5 ovarian) of the same compound?
Its TGI is 21 µM.

And the GI50 (NCI-H23 lung)?
Its GI50 is 5.67 µM.

And the TGI (NCI-H23 lung)?
Its TGI is 29.1 µM.

And the GI50 (SK-MEL-28 melanoma)?
Its GI50 is 5.62 µM.

What about the TGI (SK-MEL-28 melanoma) of the same compound?
Its TGI is 24.4 µM.

And the GI50 (UACC-257 melanoma)?
The GI50 was 6.4 µM.

And the TGI (UACC-257 melanoma)?
Its TGI is 22.5 µM.

What about the GI50 (SW-620 colon) of the same compound?
The GI50 was 2.14 µM.

And the TGI (SW-620 colon)?
Its TGI is 22.3 µM.

And the GI50 (UO-31 renal)?
Its GI50 is 0.549 µM.

And the TGI (UO-31 renal)?
Its TGI is 5.06 µM.

And the GI50 (HOP-92 NSCLC)?
The GI50 was 0.928 µM.

What about the TGI (HOP-92 NSCLC) of the same compound?
The TGI was 5.34 µM.

What about the GI50 (SN12C renal) of the same compound?
Its GI50 is 1.77 µM.

What about the TGI (SN12C renal) of the same compound?
Its TGI is 31.4 µM.

What about the GI50 (PC-3 prostate) of the same compound?
Its GI50 is 2.92 µM.

And the TGI (PC-3 prostate)?
The TGI was 26.9 µM.

And the GI50 (SNB-19 CNS)?
Its GI50 is 3.91 µM.

What about the TGI (SNB-19 CNS) of the same compound?
Its TGI is 37.4 µM.

What about the GI50 (OVCAR-3 ovarian) of the same compound?
The GI50 was 2.47 µM.

What about the TGI (OVCAR-3 ovarian) of the same compound?
Its TGI is 16.1 µM.

What about the GI50 (SR leukemia) of the same compound?
Its GI50 is 3.41 µM.

And the TGI (SR leukemia)?
The TGI was greater than 100 µM.
